Source: patent US20220409510A1, “Polypeptides And Methods For Improving Skin Conditions” (Interk Peptide Therapeutics Limited, priority 2018, published 2022)

Columns and labels:
[1] = test system: Cyclobutane pyrimidine dimers (CPDs) in primary keratinocytes; experiment: CPD detection by IHC in keratinocytes after UV-irradiation in vitro; type: cell-based
Method: An in vitro assay was conducted allowing for densitometry analysis of CPD detection by IHC in keratinocytes 3 h following UV-irradiation in accordance with the following protocol.
Keratinocytes were harvested and cultured as described above at Example 2. Samples were split into two groups, being UV irradiated (UVR) and non-UV irradiated (SHAM). UV-irradiation was performed by solar simulated UV-irradiation for cells, also as described above at Example 2. Irradiation solution was PBS containing 5 mM D-glucose. […]
Harvested keratinocytes were plated on poly-D-lysine coated coverslips in 96 well plates and irradiated (or sham treated) as described above in at Example 2 in PBS containing 5 mM D-glucose. Keratinocytes were fixed 3 h after UV-irradiation. Immunohistochemistry and image analysis were performed as described previously (Gordon-Thomson et al., Photochem Photobiol Sci, 2012, 11(12):1837-47; Gupta et al., vide supra, Rybchyn MS et al., J Invest Dermatol, 2018;138(5):1146-1156). Thymine dimers were detected using the anti-thymine dimer antibody (Sigma-Aldrich, Mo., USA) at 10 μg/mL, and quantified as an index of CPD, as previously described (Douki T and Cadet J, Biochemistry,2001, 40(8):2495-501).

[2] = test system: primary keratinocytes; experiment: ATP levels in primary keratinocytes exposed to ssUV (CellTiter-Glo 2.0 Assay); type: cell-based; conditions: 1.5 hours after UVR, FIG. 4
Method: The influence of the polypeptide IK34720 (SEQ ID NO: 3) on intracellular ATP following UV exposure was assessed using the following protocol.
Primary keratinocytes were harvested as described above in Example 2 and were either exposed to ssUV-irradiation (UVR), as described above in Example 2 or not irradiated (SHAM), in the presence or absence of Calcitriol (positive control) or polypeptide IK34720 (SEQ ID NO: 3; RSKAKNPLYRRRRRRRRR), at the concentrations described in Example 2.
ATP levels were determined 1.5 hours after UVR using the CellTiter-Glo® 2.0 Assay (Promega, Wis., USA) as described previously (Rybchyn et al., vide supra, 2017). All data in FIG. 4 is shown as mean±SD. *p<0.05, **p<0.01. Cells were prepared and irradiated as described above.

[3] = test system: wound (skin punch, ID 12 mm); experiment: Murine wound model, percentage closure of the wound; type: in vivo, ICR mice; conditions: topical 10 ug per mouse daily for 10 consecutive days; Day 5 to Day 11; vs negative control (PBS)
Text: FIGS. 1 and 2 illustrate the effect of polypeptides IK34720 (SEQ ID NO: 3—RSKAKNPLYRRRRRRRRR) (FIG. 1) and the dextro-reverso sequence IK236770 (SEQ ID NO: 4—rrrrrrrrrylpnkaksr) (FIG. 2), on wound healing over 10 days in a murine wound model in accordance with the following protocol.
Three groups of 8 male ICR mice with a mean weight of 22 g (±2 g) were used in the present study. The animals were housed in individual cages during the study. Under isoflurane gas anaesthesia, the shoulder and back region of each animal was shaved and a sharp punch (ID 12 mm) was used to induce a wound by removing the skin, including panniculus carnosus and adherent tissues on Day 1.
Following induction of the wound the polypeptides IK34720 and IK236770 were topically administered to the site of the wound at a dosage of 10 μg per animal. […] An additional group which comprised the administration of Phosphate buffered Saline (PBS) at pH 7.4 was used as a negative control.
The wound healing was analysed on Days 5, 7, 9 and 11 by tracing the periphery of the wound onto clear plastic sheets with the wound area calculated by an Image analyzer ProPlus (Media Cybernetics, Version 4.5.0.29. The percentage closure of the wound (%) was calculated. Percentage closure of the wound was determined on 5, 7, 9 and 11. ANOVA and Dunnett's test were applied to test significant significance between the treated groups (peptide and positive control groups) and the negative control group at each time point of measurement. Differences were considered statistically significant at P<0.05, and are indicated by *.

[4] = test system: MMP1; experiment: MMP1 expression in human skin explants after UV-irradiation (immunohistochemistry); type: cell-based
Method: The effect of the polypeptide IK34720 (SEQ ID NO: 3) on MMP-1 activity in human skin was evaluated using the following protocol.
FIGS. 17 and 18 illustrate the effect of the polypeptide IK34720 (SEQ ID NO: 3) on MMP1 expression, in accordance with the following protocol.
Human skin (2× human explant tissues) removed at elective surgery was cleaned, dissected and cut into pieces of approx. 5mm×5mm. Each piece was placed in a well of a 96 well plate, with individual plates prepared to assess the effects 3 hrs post treatment. Skin was subjected to UV-radiation from solar-simulated UV source for 1.5 h (UVR), or non-irradiation (SHAM), and treated immediately after with a vehicle control, Calcitriol (1 nM) or the polypeptide IK34720 (SEQ ID NO: 3) at concentrations of 50 μM, 250 μM or 500 uM. In FIG. 17, IK50, IK250 and IK500 as μM concentrations refers to 15 μg, 75 μg and 150 μg of IK34720 per 120 μL culture medium/explant, respectively.
Samples harvested at 3 hrs were fixed, sectioned, immunohistochemically stained for MMP1 and quantified for MMP1 expression, by expressing epidermal area stained for MMP1 as a function of total epidermal area examined.

[5] = test system: CPD formation in the skin; experiment: CPD formation in the skin of mice after acute UV-irradiation; type: in vivo, Skh:hr1 hairless mice; conditions: topical immediately after UVR, doses as Example 4; 3 hours post-UVR; vs vehicle
Method: Female Skh:hr1 hairless mice were exposed to solar simulated UV-irradiation as described above at Example 4. Immediately after irradiation mice were treated topically on the dorsal surface also as described in Example 4. Subsequently, skin was fixed at 3 hours post-UVR, and subjected to immuno-histochemical staining using the antibody directed against thymine dimers (CPD) described above at 10 μg/ml. […] In FIG. 9, dark staining in nuclei indicates the presence of thymine dimers (CPD), and the % area stained is presented. Immunohistology was quantified as per Example 4.

RSKAKNPLYRRRRRRRRR [IK34720, 18-residue polypeptide: … with a C-terminal polyarginine region of 8 arginines]
CPD levels vs keratinocytes treated with Calcitriol ([1]; 5 μM, 3 h after UV): comparable reduction in CPD levels
CPD levels vs vehicle-treated UV-irradiated keratinocytes ([1]; 5 μM, 3 h after UV): statistically significant (*p<0.05) reduction in CPD levels
CPD formation (average intensity of CPD staining) vs positive control ([1]; 10 uM, FIG. 8B): more effective at inhibiting CPD formation than the positive control 1,25 D
CPD levels ([1]; 0.5, 1, 2.5 or 5 μM after ssUV, keratinocytes fixed 3 h after UV, FIGS. 7 and 8): decreases CPD levels in primary keratinocytes exposed to solar simulated UV-irradiation in a dose dependent manner
ATP levels [2]: enhanced the ATP levels
wound closure percentage [3]: statistically significant increase (P<0.05) in wound closure percentage
percentage of MMP1 positive cells ([4]; 500 μM, 3 hrs, FIG. 18): statistically significantly reduced
cells staining for MMP-1 ([4]; 3 hrs post irradiation/treatment, Calcitriol 1 nM, IK34720 50, 250 or 500 uM, FIG. 17): fewer stained cells
CPD formation in the skin (CPD nuclei) [5]: inhibits CPD formation
